Source: PubChem BioAssay (NCI)
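Tested at 5 concentrations; 48 h exposure; 96-well plates; endpoints linearly interpolated, else capped at highest concentration. Definition used: TGI = concentration required for complete inhibition of growth.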

Tests used:
Experiment in all cases: NCI anticancer screen, dose series, 48 h
786-0 renal = tested on: 786-0 renal
A498 renal = tested on: A498 renal
A549 NSCLC = tested on: A549 NSCLC
ACHN renal = tested on: ACHN renal
CAKI-1 renal = tested on: CAKI-1 renal
CCRF-CEM leukemia = tested on: CCRF-CEM leukemia
COLO 205 colon = tested on: COLO 205 colon
DLD-1 colon = tested on: DLD-1 colon
DMS 114 small cell lung = tested on: DMS 114 small cell lung
DMS 273 small cell lung = tested on: DMS 273 small cell lung
EKVX NSCLC = tested on: EKVX NSCLC
HCC-2998 colon = tested on: HCC-2998 colon
HCT-116 colon = tested on: HCT-116 colon
HCT-15 colon = tested on: HCT-15 colon
HL-60(TB) leukemia = tested on: HL-60(TB) leukemia
HOP-18 NSCLC = tested on: HOP-18 NSCLC
HOP-62 NSCLC = tested on: HOP-62 NSCLC
HOP-92 NSCLC = tested on: HOP-92 NSCLC
HT29 colon = tested on: HT29 colon
IGROV1 ovarian = tested on: IGROV1 ovarian
K-562 leukemia = tested on: K-562 leukemia
KM12 colon = tested on: KM12 colon
KM20L2 colon = tested on: KM20L2 colon
LOX IMVI melanoma = tested on: LOX IMVI melanoma
LXFL 529 NSCLC = tested on: LXFL 529 NSCLC
M14 melanoma = tested on: M14 melanoma
M19-MEL melanoma = tested on: M19-MEL melanoma
MALME-3M melanoma = tested on: MALME-3M melanoma
MOLT-4 leukemia = tested on: MOLT-4 leukemia
NCI-H226 lung = tested on: NCI-H226 lung
NCI-H23 lung = tested on: NCI-H23 lung
NCI-H460 lung = tested on: NCI-H460 lung
NCI-H522 lung = tested on: NCI-H522 lung
OVCAR-3 ovarian = tested on: OVCAR-3 ovarian
OVCAR-4 ovarian = tested on: OVCAR-4 ovarian
OVCAR-5 ovarian = tested on: OVCAR-5 ovarian
OVCAR-8 ovarian = tested on: OVCAR-8 ovarian
RPMI-8226 leukemia = tested on: RPMI-8226 leukemia
RXF 393 renal = tested on: RXF 393 renal
SF-268 CNS = tested on: SF-268 CNS
SF-295 CNS = tested on: SF-295 CNS
SF-539 CNS = tested on: SF-539 CNS
SK-MEL-28 melanoma = tested on: SK-MEL-28 melanoma
SK-MEL-5 melanoma = tested on: SK-MEL-5 melanoma
SK-OV-3 ovarian = tested on: SK-OV-3 ovarian
SN12C renal = tested on: SN12C renal
SNB-19 CNS = tested on: SNB-19 CNS
SNB-75 CNS = tested on: SNB-75 CNS
SNB-78 CNS = tested on: SNB-78 CNS
SR leukemia = tested on: SR leukemia
SW-620 colon = tested on: SW-620 colon
TK-10 renal = tested on: TK-10 renal
U251 CNS = tested on: U251 CNS
UACC-257 melanoma = tested on: UACC-257 melanoma
UACC-62 melanoma = tested on: UACC-62 melanoma
UO-31 renal = tested on: UO-31 renal
XF 498 CNS = tested on: XF 498 CNS
SK-MEL-2 melanoma = tested on: SK-MEL-2 melanoma

CC1CC(c2ccc([N+](=O)[O-])cc2)=Nc2ccccc2S1 (stereo not given)
TGI (786-0 renal): 29.5 µM
TGI (A498 renal): 36.1 µM
TGI (A549 NSCLC): 60.1 µM
TGI (ACHN renal): 44.2 µM
TGI (CAKI-1 renal): 83.5 µM
TGI (CCRF-CEM leukemia): 39.1 µM
TGI (COLO 205 colon): 55.1 µM
TGI (DLD-1 colon): 25.5 µM
TGI (DMS 114 small cell lung): 36.6 µM
TGI (DMS 273 small cell lung): 41.7 µM
TGI (EKVX NSCLC): 48.6 µM
TGI (HCC-2998 colon): 38.1 µM
TGI (HCT-116 colon): 3.56 µM
TGI (HCT-15 colon): 29.3 µM
TGI (HL-60(TB) leukemia): 36.4 µM
TGI (HOP-18 NSCLC): > 100 µM
TGI (HOP-62 NSCLC): > 100 µM
TGI (HOP-92 NSCLC): 89.7 µM
TGI (HT29 colon): 26.3 µM
TGI (IGROV1 ovarian): 35.4 µM
TGI (K-562 leukemia): 40.3 µM
TGI (KM12 colon): 25.3 µM
TGI (KM20L2 colon): 36.6 µM
TGI (LOX IMVI melanoma): 20.6 µM
TGI (LXFL 529 NSCLC): 26 µM
TGI (M14 melanoma): 27.2 µM
TGI (M19-MEL melanoma): 26.7 µM
TGI (MALME-3M melanoma): > 100 µM
TGI (MOLT-4 leukemia): 63.6 µM
TGI (NCI-H226 lung): 46.6 µM
TGI (NCI-H23 lung): 34.2 µM
TGI (NCI-H460 lung): > 100 µM
TGI (NCI-H522 lung): 41.9 µM
TGI (OVCAR-3 ovarian): 23.7 µM
TGI (OVCAR-4 ovarian): 43.9 µM
TGI (OVCAR-5 ovarian): 76.1 µM
TGI (OVCAR-8 ovarian): > 100 µM
TGI (RPMI-8226 leukemia): 7.21 µM
TGI (RXF 393 renal): 32 µM
TGI (SF-268 CNS): 38.9 µM
TGI (SF-295 CNS): 45.3 µM
TGI (SF-539 CNS): 32.9 µM
TGI (SK-MEL-28 melanoma): 32.2 µM
TGI (SK-MEL-5 melanoma): 42.4 µM
TGI (SK-OV-3 ovarian): 31 µM
TGI (SN12C renal): 35.1 µM
TGI (SNB-19 CNS): 39.5 µM
TGI (SNB-75 CNS): > 100 µM
TGI (SNB-78 CNS): > 100 µM
TGI (SR leukemia): 24.9 µM
TGI (SW-620 colon): 29.6 µM
TGI (TK-10 renal): 76.1 µM
TGI (U251 CNS): 28.4 µM
TGI (UACC-257 melanoma): 35.9 µM
TGI (UACC-62 melanoma): 28.8 µM
TGI (UO-31 renal): 24.9 µM
TGI (XF 498 CNS): 70.7 µM

O=C1C2C=CC(n3[nH]c(=O)n(Cc4ccccc4)c3=O)CC2C(=O)N1c1cccc(Cl)c1 (stereo not given)
TGI (786-0 renal): > 100 µM
TGI (A498 renal): > 100 µM
TGI (A549 NSCLC): > 100 µM
TGI (ACHN renal): > 100 µM
TGI (CAKI-1 renal): > 100 µM
TGI (CCRF-CEM leukemia): > 100 µM
TGI (COLO 205 colon): > 100 µM
TGI (DLD-1 colon): > 100 µM
TGI (DMS 114 small cell lung): > 100 µM
TGI (DMS 273 small cell lung): > 100 µM
TGI (EKVX NSCLC): > 100 µM
TGI (HCC-2998 colon): > 100 µM
TGI (HCT-116 colon): > 100 µM
TGI (HCT-15 colon): > 100 µM
TGI (HL-60(TB) leukemia): > 100 µM
TGI (HOP-18 NSCLC): > 100 µM
TGI (HOP-62 NSCLC): > 100 µM
TGI (HOP-92 NSCLC): > 100 µM
TGI (HT29 colon): > 100 µM
TGI (IGROV1 ovarian): > 100 µM
TGI (K-562 leukemia): > 100 µM
TGI (KM12 colon): > 100 µM
TGI (KM20L2 colon): > 100 µM
TGI (LOX IMVI melanoma): > 100 µM
TGI (LXFL 529 NSCLC): > 100 µM
TGI (M14 melanoma): > 100 µM
TGI (M19-MEL melanoma): > 100 µM
TGI (MALME-3M melanoma): > 100 µM
TGI (NCI-H226 lung): > 100 µM
TGI (NCI-H23 lung): > 100 µM
TGI (NCI-H460 lung): > 100 µM
TGI (NCI-H522 lung): > 100 µM
TGI (OVCAR-3 ovarian): > 100 µM
TGI (OVCAR-4 ovarian): > 100 µM
TGI (OVCAR-5 ovarian): > 100 µM
TGI (OVCAR-8 ovarian): > 100 µM
TGI (RXF 393 renal): > 100 µM
TGI (SF-268 CNS): > 100 µM
TGI (SF-295 CNS): > 100 µM
TGI (SF-539 CNS): > 100 µM
TGI (SK-MEL-2 melanoma): > 100 µM
TGI (SK-MEL-28 melanoma): > 100 µM
TGI (SK-MEL-5 melanoma): > 100 µM
TGI (SK-OV-3 ovarian): > 100 µM
TGI (SN12C renal): > 100 µM
TGI (SNB-19 CNS): > 100 µM
TGI (SNB-75 CNS): > 100 µM
TGI (SNB-78 CNS): > 100 µM
TGI (SR leukemia): > 100 µM
TGI (SW-620 colon): > 100 µM
TGI (TK-10 renal): > 100 µM
TGI (U251 CNS): > 100 µM
TGI (UACC-257 melanoma): > 100 µM
TGI (UACC-62 melanoma): > 100 µM
TGI (UO-31 renal): > 100 µM
TGI (XF 498 CNS): > 100 µM

CC(CC[C@@H](C)C1CCC2[C@@H]3CC(O)C4CC(O)[C@@H](O)C[C@]4(C)C3CC[C@@]21C)C(C)(C)C (stereo not given in full)
TGI (786-0 renal): > 100 µM
TGI (A498 renal): > 100 µM
TGI (A549 NSCLC): > 100 µM
TGI (ACHN renal): > 100 µM
TGI (CAKI-1 renal): > 100 µM
TGI (CCRF-CEM leukemia): > 100 µM
TGI (COLO 205 colon): > 100 µM
TGI (DLD-1 colon): > 100 µM
TGI (DMS 114 small cell lung): > 100 µM
TGI (DMS 273 small cell lung): > 100 µM
TGI (EKVX NSCLC): > 100 µM
TGI (HCC-2998 colon): > 100 µM
TGI (HCT-116 colon): > 100 µM
TGI (HCT-15 colon): > 100 µM
TGI (HL-60(TB) leukemia): > 100 µM
TGI (HOP-18 NSCLC): > 100 µM
TGI (HOP-62 NSCLC): > 100 µM
TGI (HOP-92 NSCLC): > 100 µM
TGI (HT29 colon): > 100 µM
TGI (IGROV1 ovarian): > 100 µM
TGI (K-562 leukemia): > 100 µM
TGI (KM12 colon): > 100 µM
TGI (KM20L2 colon): > 100 µM
TGI (LOX IMVI melanoma): > 100 µM
TGI (LXFL 529 NSCLC): > 100 µM
TGI (M14 melanoma): > 100 µM
TGI (M19-MEL melanoma): > 100 µM
TGI (MALME-3M melanoma): > 100 µM
TGI (MOLT-4 leukemia): > 100 µM
TGI (NCI-H226 lung): > 100 µM
TGI (NCI-H23 lung): > 100 µM
TGI (NCI-H460 lung): > 100 µM
TGI (OVCAR-3 ovarian): > 100 µM
TGI (OVCAR-4 ovarian): > 100 µM
TGI (OVCAR-5 ovarian): > 100 µM
TGI (OVCAR-8 ovarian): > 100 µM
TGI (RPMI-8226 leukemia): > 100 µM
TGI (RXF 393 renal): > 100 µM
TGI (SF-268 CNS): > 100 µM
TGI (SF-295 CNS): > 100 µM
TGI (SF-539 CNS): > 100 µM
TGI (SK-MEL-2 melanoma): > 100 µM
TGI (SK-MEL-28 melanoma): > 100 µM
TGI (SK-MEL-5 melanoma): > 100 µM
TGI (SK-OV-3 ovarian): > 100 µM
TGI (SN12C renal): > 100 µM
TGI (SNB-19 CNS): > 100 µM
TGI (SNB-75 CNS): > 100 µM
TGI (SNB-78 CNS): > 100 µM
TGI (SR leukemia): > 100 µM
TGI (SW-620 colon): > 100 µM
TGI (TK-10 renal): > 100 µM
TGI (U251 CNS): > 100 µM
TGI (UACC-257 melanoma): > 100 µM
TGI (UACC-62 melanoma): > 100 µM
TGI (UO-31 renal): > 100 µM
TGI (XF 498 CNS): > 100 µM
